Test system: Plasmodium berghei
Test: Luciferase/luciferin-expressing antifolate-resistant parasites were used to infect a culture of HepG2 cells that were pre-incubated with compounds. Infected hepatocytes emit light due to the luciferase reaction. Assay results are presented as the percent inhibition of light emission compared to control. […]
Format: functional
Conditions: sporozoite; for IC90: read-out: LUCIFERASE INFECTION ASSAY - IC90

Row | Compound | IC90 [µM] | further results
1 | CCCc1c(NC(=O)Nc2ccc(F)cc2)cnn1-c1ccccc1 | 6.91 | IC50 (HEPG2TOX_HILL_SLOPE 4.02, HEPG2TOX_R_SQUARED 0.285, PBLUC_HILL_SLOPE 3.66, PBLUC_R_SQUARED 0.261, read-out: LUCIFERASE INFECTION ASSAY - IC50): 3.79 µM
2 | Cc1ccc(NC2=C(Cl)C(=O)c3ccccc3C2=O)cc1 | 7.81 | IC50 (HEPG2TOX_HILL_SLOPE 4.14, HEPG2TOX_R_SQUARED 0.984, PBLUC_HILL_SLOPE 5.35, PBLUC_R_SQUARED 0.565, read-out: LUCIFERASE INFECTION ASSAY - IC50): 5.18 µM
3 | CCN1C/C(=C/c2ccc(OC)c(O)c2)C(=O)/C(=C/c2ccc(OC)c(O)c2)C1 | 4.05 | IC50 (HEPG2TOX_HILL_SLOPE 4, HEPG2TOX_R_SQUARED 0.984, PBLUC_HILL_SLOPE 15.6, PBLUC_R_SQUARED 0.475, read-out: LUCIFERASE INFECTION ASSAY - IC50): 3.52 µM
4 | Cc1cc(C(C)(C)C)cc(C)c1C[n+]1c2n(c3ccc(C(F)(F)F)cc31)CCCCC2 | 2.85 | IC50 (HEPG2TOX_HILL_SLOPE 3.95, HEPG2TOX_R_SQUARED 0.938, PBLUC_HILL_SLOPE 4.2, PBLUC_R_SQUARED 0.767, read-out: LUCIFERASE INFECTION ASSAY - IC50): 1.69 µM
5 | CC(C)c1ccc(NC(=O)Nc2nc(C(N)CCc3ccccc3)cs2)cc1 (stereo not given) | 7.09 | IC50 (HEPG2TOX_HILL_SLOPE 3.95, HEPG2TOX_R_SQUARED 0.94, PBLUC_HILL_SLOPE 4.47, PBLUC_R_SQUARED 0.626, read-out: LUCIFERASE INFECTION ASSAY - IC50): 4.34 µM
6 | Cn1ccc2cc(-c3cnc4cnc(-c5cccc(C(=O)NCCO)c5)cn34)ccc21 | 3.63 | IC50 (HEPG2TOX_HILL_SLOPE 4.1, HEPG2TOX_R_SQUARED 0.752, PBLUC_HILL_SLOPE 9.77, PBLUC_R_SQUARED 0.277, read-out: LUCIFERASE INFECTION ASSAY - IC50): 2.9 µM
7 | COc1ccc(NS(=O)(=O)c2cc([N+](=O)[O-])ccc2N/N=C(\C)c2ccc(S(=O)(=O)NCc3ccco3)cc2)cc1 | 4.99 | IC50 (HEPG2TOX_HILL_SLOPE 4.01, HEPG2TOX_R_SQUARED 0.968, PBLUC_HILL_SLOPE 8.16, PBLUC_R_SQUARED 0.206, read-out: LUCIFERASE INFECTION ASSAY - IC50): 3.81 µM
8 | COc1cc(/C=C2/C(=O)Nc3cc(Cl)ccc32)c([N+](=O)[O-])cc1OC(F)F | 4.58 | IC50 (HEPG2TOX_HILL_SLOPE 4.03, HEPG2TOX_R_SQUARED 0.974, PBLUC_HILL_SLOPE 1.79, PBLUC_R_SQUARED 0.765, read-out: LUCIFERASE INFECTION ASSAY - IC50): 1.34 µM
9 | CN(C)c1ccccc1-c1cn2c(-c3ccc(CO)cc3)cnc2cn1 | > 9.58 | IC50 (HEPG2TOX_HILL_SLOPE 4.17, HEPG2TOX_R_SQUARED 0.686, PBLUC_HILL_SLOPE 6.79, PBLUC_R_SQUARED 0.489, read-out: LUCIFERASE INFECTION ASSAY - IC50): 8.57 µM
10 | COc1ccc(-c2cnc3sc(NCCc4ccncc4)nn23)cc1OC | 8.35 | IC50 (HEPG2TOX_HILL_SLOPE 4.06, HEPG2TOX_R_SQUARED 0.383, PBLUC_HILL_SLOPE 12.9, PBLUC_R_SQUARED 0.15, read-out: LUCIFERASE INFECTION ASSAY - IC50): 7.04 µM
11 | Cc1cc(C(=O)Cn2c(Cl)nc3c2c(=O)n(C)c(=O)n3C)c(C)n1-c1ccc2c(c1)OCCO2 | > 10 | IC50 (HEPG2TOX_HILL_SLOPE 4.07, HEPG2TOX_R_SQUARED 0.354, PBLUC_HILL_SLOPE 24.1, PBLUC_R_SQUARED 0.351, read-out: LUCIFERASE INFECTION ASSAY - IC50): 9.79 µM
12 | COc1cc(CN(C)C(=O)c2ccc3c(c2)S(=O)(=O)N=C2CCCCCN23)ccc1OC(F)F | > 10 | IC50 (HEPG2TOX_HILL_SLOPE 4.17, HEPG2TOX_R_SQUARED 0.672, PBLUC_HILL_SLOPE 0.764, PBLUC_R_SQUARED 0.62, read-out: LUCIFERASE INFECTION ASSAY - IC50): 1.97 µM
13 | CCCCCNC(=O)COC(=O)c1ccccc1-n1ncc(Cl)c(Cl)c1=O | 7.79 | IC50 (HEPG2TOX_HILL_SLOPE 4.14, HEPG2TOX_R_SQUARED 0.93, PBLUC_HILL_SLOPE 2.41, PBLUC_R_SQUARED 0.609, read-out: LUCIFERASE INFECTION ASSAY - IC50): 3.13 µM
14 | NS(=O)(=O)c1ccc(S(=O)(=O)N2CCCN(Cc3ccc(C(F)(F)F)cc3)CC2)cc1 | > 10 | IC50 (HEPG2TOX_HILL_SLOPE 4.06, HEPG2TOX_R_SQUARED 0.95, PBLUC_HILL_SLOPE 2.74, PBLUC_R_SQUARED 0.121, read-out: LUCIFERASE INFECTION ASSAY - IC50): 6.92 µM
15 | Fc1cccc(-c2nc3ccnc(Nc4cccc(Oc5ccccc5)c4)c3[nH]2)c1 | 8.85 | IC50 (HEPG2TOX_HILL_SLOPE 4.02, HEPG2TOX_R_SQUARED 0.911, PBLUC_HILL_SLOPE 2.5, PBLUC_R_SQUARED 0.399, read-out: LUCIFERASE INFECTION ASSAY - IC50): 3.68 µM
16 | COc1ccc(/C(C)=N/NC(=O)c2sc3ccccc3c2Cl)c(O)c1 | 3.29 | IC50 (HEPG2TOX_HILL_SLOPE 4.02, HEPG2TOX_R_SQUARED 0.607, PBLUC_HILL_SLOPE 31, PBLUC_R_SQUARED 0.396, read-out: LUCIFERASE INFECTION ASSAY - IC50): 3.06 µM
17 | COc1ccc(S(=O)(=O)Nc2ccccc2C(=O)NNC(=O)c2ccccc2O)cc1 | 4.69 | IC50 (HEPG2TOX_HILL_SLOPE 4.15, HEPG2TOX_R_SQUARED 0.834, PBLUC_HILL_SLOPE 17, PBLUC_R_SQUARED 0.564, read-out: LUCIFERASE INFECTION ASSAY - IC50): 4.12 µM
18 | CC(C)N1/C(=C/c2ccc3c(c2)OCCO3)C(=O)c2ccccc2S1(=O)=O | > 8.56 | IC50 (HEPG2TOX_HILL_SLOPE 4.1, HEPG2TOX_R_SQUARED 0.916, PBLUC_HILL_SLOPE 3.33, PBLUC_R_SQUARED 0.555, read-out: LUCIFERASE INFECTION ASSAY - IC50): 5.07 µM
19 | C/C(=N\n1c(-c2cccc(Br)c2)cs/c1=N\c1ccc(Cl)cc1Cl)c1ccc2c(c1)OCO2 | > 10 | IC50 (HEPG2TOX_HILL_SLOPE 4.14, HEPG2TOX_R_SQUARED 0.54, PBLUC_HILL_SLOPE 9.69, PBLUC_R_SQUARED 0.311, read-out: LUCIFERASE INFECTION ASSAY - IC50): 9.72 µM
20 | Cc1c(Cl)cccc1/N=C1\SCCN1C(=O)C(c1ccccc1)c1ccccc1 | > 10 | IC50 (HEPG2TOX_HILL_SLOPE 4.09, HEPG2TOX_R_SQUARED 0.235, read-out: LUCIFERASE INFECTION ASSAY - IC50): > 10 µM
21 | CC(C)C(Nc1ccc(C(F)(F)F)cc1Cl)C(=O)Nc1nc(-c2ccccc2Cl)cs1 (stereo not given) | 6.73 | IC50 (HEPG2TOX_HILL_SLOPE 4.1, HEPG2TOX_R_SQUARED 0.707, PBLUC_HILL_SLOPE 4.35, PBLUC_R_SQUARED 0.154, read-out: LUCIFERASE INFECTION ASSAY - IC50): 4.06 µM
22 | COc1ccc(Cn2c3c(c4ccccc4c2=O)C(=O)c2ccccc2-3)cc1 | > 8.98 | IC50 (HEPG2TOX_HILL_SLOPE 4, HEPG2TOX_R_SQUARED 0.749, PBLUC_HILL_SLOPE 2.74, PBLUC_R_SQUARED 0.283, read-out: LUCIFERASE INFECTION ASSAY - IC50): 7.93 µM
23 | Cc1ccc(-c2c(C)nn3c(=O)cc(C)[nH]c23)cc1 | 12.5 | IC50 (HEPG2TOX_HILL_SLOPE 4.15, HEPG2TOX_R_SQUARED 0.53, PBLUC_HILL_SLOPE 4.03, PBLUC_R_SQUARED 0.493, read-out: LUCIFERASE INFECTION ASSAY - IC50): 7.24 µM
24 | CC(=O)Nc1cccc(-c2cn3c(-c4cccs4)cnc3cn2)c1 | > 9.87 | IC50 (HEPG2TOX_HILL_SLOPE 3.98, HEPG2TOX_R_SQUARED 0.532, PBLUC_HILL_SLOPE 3.16, PBLUC_R_SQUARED 0.221, read-out: LUCIFERASE INFECTION ASSAY - IC50): 5.11 µM
25 | O=C(Nc1ccc(SC(F)(F)F)cc1)Nc1ccc(Oc2cccc(C(F)(F)F)c2)nc1 | 0.806 | IC50 (HEPG2TOX_HILL_SLOPE 4.03, HEPG2TOX_R_SQUARED 0.946, PBLUC_HILL_SLOPE 9.59, PBLUC_R_SQUARED 0.631, read-out: LUCIFERASE INFECTION ASSAY - IC50): 0.641 µM
26 | O=C(NC1CCN(c2ccc(S(=O)(=O)C(F)F)cc2)CC1)C1CC1 | > 10 | IC50 (HEPG2TOX_HILL_SLOPE 4.17, HEPG2TOX_R_SQUARED 0.587, PBLUC_HILL_SLOPE 17, PBLUC_R_SQUARED 0.152, read-out: LUCIFERASE INFECTION ASSAY - IC50): 8.89 µM
27 | COc1ccc(-c2cnc3ccc(NCc4cccc(Cl)c4)nn23)cc1 | 8.06 | IC50 (HEPG2TOX_HILL_SLOPE 4.15, HEPG2TOX_R_SQUARED 0.863, PBLUC_HILL_SLOPE 14.2, PBLUC_R_SQUARED 0.0441, read-out: LUCIFERASE INFECTION ASSAY - IC50): 6.9 µM
28 | COc1cccc(CNCc2nc(NCc3cccc(OC)c3)c3c(C)c(C)sc3n2)c1 | > 10 | IC50 (HEPG2TOX_HILL_SLOPE 3.99, HEPG2TOX_R_SQUARED 0.699, PBLUC_HILL_SLOPE 15.2, PBLUC_R_SQUARED 0.535, read-out: LUCIFERASE INFECTION ASSAY - IC50): 8.97 µM
29 | CN(C)c1cccc(CNc2nccc3nc(-c4cccc(F)c4)[nH]c23)c1 | 5.76 | IC50 (HEPG2TOX_HILL_SLOPE 3.96, HEPG2TOX_R_SQUARED 0.788, PBLUC_HILL_SLOPE 4.1, PBLUC_R_SQUARED 0.415, read-out: LUCIFERASE INFECTION ASSAY - IC50): 3.37 µM
30 | Cc1oc2c(c1C(=O)N1CCC(C)CC1)C(=O)c1ccccc1C2=O | > 10 | IC50 (HEPG2TOX_HILL_SLOPE 3.97, HEPG2TOX_R_SQUARED 0.955, PBLUC_HILL_SLOPE 1.55, PBLUC_R_SQUARED 0.65, read-out: LUCIFERASE INFECTION ASSAY - IC50): 2.73 µM
